Test results reported in US4711898A, “4-quinolone derivatives having anti-inflammatory, anti-allergic, antitussive, expectorant and antithrombotic activity” (Nippon Shinyaku Co., Ltd., priority 1982, dated 1987).
Read-outs that look alike come from different tables or passages of the source.

Assays:
[1] = tested on: carrageenin edema; experiment: Carrageenin edema at the hind foot of rats; assay type: in vivo, SD-strain rats; details: Rattus norvegicus, po, 3 h, read-out: % Inhibition (carrageenin edema)
Procedure: The anti-inflammatory action of the compounds of the present invention were evaluated by measuring the inhibition against carrageenin edema as set forth below. Carrageenin edema at the hind foot of rats: Experimental method. SD-strain rats of body weights of around 150 grams were used, each group consisting of five rats. A solution (0.1 ml) of 0.5% carrageenin dissolved in physiological saline water was subcutaneously injected into the right hind foot pat of the rats and, one hour prior to the injection of carrageenin, 200 mg/kg of test compound was given per os. Foot volumes of the rats before the carrageenin treatment and those of three hours after the treatment were measured and the differences were compared with those of the control group to adopt as a target of the effect of the compounds.

[2] = tested on: passive cutaneous anaphylaxis (DNP-As homocytotropic antiserum); experiment: passive cutaneous anaphylatic assay (PCA) in rats; assay type: in vivo, Wistar strain rats; details: Rattus norvegicus, po, 1 h, 10 mg/kg orally, one hour before antigen, read-out: PCA Inhibition Ratio %
Procedure: (§1) The compounds of the present invention have been evaluated for their anti-allergenic action by passive cutaneous anaphylatic assay (PCA) in rats and by measuring the anti-SRS-A action using ileus of guinea pigs.
(i) Antiserum abundant in homocytotropic antibody is prepared by the same method as Tada and Okumura did (cf. Journal of Immunology, vol. 106, page 1002, 1971). Thus, 1 mg (calculated as an amount of protein) of DNP-As (2,4-dinitrophenylcoupled ascaris extract) prepared by methods of Strejan and Campbell (Journal of Immunology, vol. 98, p. 893, 1967) and of Eisen (Journal of Amer. Chem. Soc., vol. 75, p 4593, 1953) and 1×10^10pertussis vaccine are administered to each paw of Wistar strain rats (180 to 200 grams body weights) by dividing the dose by four. Five days later, 0.5 mg of DNP-As is administered into muscle of back. Eight days later from the initial immunization, blood is taken from discending aorta under anesthetizing with ether, the resulting serum is stored at -80° and is melted before use.
(ii) Effect of tested compounds is investigated as follows:
Anti-serum obtained by th method (i) is diluted with physiological saline solution double by double successively and 0.05 ml of each diluted solution is administered into the back of Wistar strain rats (140 to 160 grams body weight) intradermally. After 72 hours, a solution of 2 mg (calculated as protein) of DNP-As and 2.5 mg of Evans Blue dissolved in 1 ml of physiological saline solution is administered intraveously at a dose of 5 ml/kg. After 30 minutes from the antigen solution administration, the animals are killed and the diameters of blue spots which appeared at the place where antiserum was administered were measured. The PCA test is conducted by the same method as already described using a diluted solutions of antiserum which always show 10 mm or more of spot diameters and the effect of the test compounds is judged. Thus antiserum diluted solutions are administered into two places in the back. Test compounds are administered orally at the dose of 10 mg/kg one hour before administration of the antigen solution. From the skin of reacted parts of killed animals, leaked or emitted dyestuff is extracted and the amount of the dyestuff is measured. The inhibition ratio is calculated by the following expression: [formula] in which A' is an amount of dyestuff in the group treated with the test compounds and A is that in the control group.

[3] = tested on: SRS-A (slow reacting substance of anaphylaxis) contraction of ileum; experiment: Anti-SRS-A action using ileus of guinea pigs; assay type: cell-based, Hartley strain male guinea pigs; details: Cavia porcellus, 5 min, 1/1000 mM; guinea pig ileum; SRS-A 20 units; compound five minutes before; read-out: 1/1000 mM SRS-A Inhibition Ratio %
Procedure: as §1
Anti-SRS-A action (An anti-acton against slow reacting substance of anaphylaxis).
Hartley strain male guinea pigs (300 to 350 grams body weight) are killed and 1.0 to 1.5 cm of ileum is immeidiately excised from ileocecal parts and is suspended in 10 ml of Tyrode solution (95% 02 -5% CO2 saturation) containing 10^-7 g/ml of atropine and 10^-6 g/ml of pyrilamine. SRS-A (20 units) (the amount of SRS-A showing the same contradiction as 5 ng of histamine is defined as 1 unit) prepared by using sensitized guinea pig lung is given to cause contraction there. Then antagonistic action of test compounds treated five minutes ago against the contraction is measured and recorded via isotonic transducer. [formula] in which A' is a height of contraction of SRS-A+test compound and A is that of SRS-A.

[4] = 200 mg/kg per os, one hour before carrageenin, foot volume three hours after

SMILES	inhibition in vivo at 200 mg/kg [1] [%]	inhibition in vivo at 10 mg/kg [2] [%]	inhibition at 1 µM [3] [%]	inhibition in vivo at 200 mg/kg [1, 4] [%]
CC(=O)Oc1ccccc1C(=O)O [Acetylsalicylic Acid, reference compound]	31.6	–	–	–
COC(=O)c1ccc2c(c1)C(=O)CC(c1ccccc1)=N2 [Example 1, Methyl 2-phenyl-4-quinolone-6-carboxylate]	–	25.4	77	34
CCOC(=O)c1ccc2c(c1)C(=O)CC(c1ccccc1)=N2 [Example 4, Ethyl 2-phenyl-4-quinolone-6-carboxylate]	–	25.7	27.5	14.2
O=C(O)c1ccc2[nH]c(-c3ccccc3Cl)cc(=O)c2c1 [Example 22]	–	35.8	26.4	14.8
O=C(O)c1ccc2[nH]c(-c3ccc(Cl)c(Cl)c3)cc(=O)c2c1 [Example 38]	–	20.4	20.5	12.8
COC(=O)c1ccc2[nH]c(-c3cc(Cl)ccc3Cl)cc(=O)c2c1 [Example 39]	–	24.8	66	30
COC(=O)c1ccc2[nH]c(-c3ccccc3C)cc(=O)c2c1 [Example 41]	–	29.5	29.1	18.9
COC(=O)c1ccc2[nH]c(-c3ccc(OC)cc3OC)cc(=O)c2c1 [Example 64]	–	17.7	48.2	10.1
COC(=O)c1ccc2[nH]c(-c3ccncc3)cc(=O)c2c1 [Example 70]	–	22.3	21.4	17.1
COC(=O)c1ccc2[nH]c(-c3ccco3)cc(=O)c2c1 [Example 76]	–	21.3	25.6	14.5
CCOC(=O)c1cccc2c(=O)cc(-c3cccc(Cl)c3)[nH]c12 [Example 86]	–	20.1	62.5	29.5
Cc1ccc(-c2cc(=O)c3cccc(C(=O)O)c3[nH]2)c(C)c1 [Example 95]	–	24.2	22.8	–
CCCCCCCCc1ccc(-c2cc(=O)c3cccc(C(=O)OCC)c3[nH]2)cc1 [Example 96]	–	21.5	23.8	–
CCCCCCCCc1ccc(-c2cc(=O)c3cccc(C(=O)O)c3[nH]2)cc1 [Example 97]	–	22	33.7	–
CCOC(=O)c1cccc2c(=O)cc(-c3ccc(OC)c(OC)c3)[nH]c12 [Example 98]	–	16.4	20.4	16.1
COc1ccc(-c2cc(=O)c3cccc(C(=O)O)c3[nH]2)cc1OC [Example 99]	–	13.2	21.7	36.8
COC(=O)c1cccc2c1N=C(c1ccccc1Cl)CC2=O [Example 101, Methyl 2-(2-chlorophenyl)-4-quinolone-8-carboxylate]	–	17.4	14.7	–
CCOC(=O)c1cccc2c(=O)cc(-c3ccc(Cl)cc3)[nH]c12 [Example 103]	–	14.7	12.4	–
CCOC(=O)c1cccc2c(=O)cc(-c3ccccc3C)[nH]c12 [Example 104]	–	10.4	19.8	53.7
CCOC(=O)c1cccc2c(=O)cc(-c3ccc(C)c(C)c3)[nH]c12 [Example 105]	–	17.3	10.4	–
CCOC(=O)c1cccc2c(=O)cc(-c3ccc(C(C)C)cc3)[nH]c12 [Example 106]	–	33.4	44	50.9

SMILES	inhibition in vivo at 200 mg/kg [1] [%]	inhibition in vivo at 10 mg/kg [2] [%]	inhibition at 1 µM [3] [%]	inhibition in vivo at 200 mg/kg [1, 4] [%]
CCCOC(=O)c1cccc2c(=O)cc(-c3ccccc3Cl)[nH]c12 [Example 111]	–	2.4	7.8	–
CCCCCCOC(=O)c1cccc2c(=O)cc(-c3ccccc3Cl)[nH]c12 [Example 113]	–	10.5	20.5	–
O=C(OCCCO)c1cccc2c(=O)cc(-c3ccccc3Cl)[nH]c12 [Example 115]	–	12.4	27.4	–
O=C(OCCCCCO)c1cccc2c(=O)cc(-c3ccccc3Cl)[nH]c12 [Example 116]	–	15	23.7	–
O=C(OCCCCCCO)c1cccc2c(=O)cc(-c3ccccc3Cl)[nH]c12 [Example 117]	–	50	8.7	–
O=C(OCCOc1ccccc1)c1cccc2c(=O)cc(-c3ccccc3Cl)[nH]c12 [Example 119]	–	47	73.4	–
N#CCOC(=O)c1cccc2c(=O)cc(-c3ccccc3Cl)[nH]c12 [Example 121]	–	54.4	3.4	–
CC(=O)COC(=O)c1cccc2c(=O)cc(-c3ccccc3Cl)[nH]c12 [Example 122]	–	14.7	20.4	–
CCOC(=O)COC(=O)c1cccc2c(=O)cc(-c3ccccc3Cl)[nH]c12 [Example 123]	–	16	17.4	–
CCOC(=O)CCCOC(=O)c1cccc2c(=O)cc(-c3ccccc3Cl)[nH]c12 [Example 124]	–	–	–	14.5
O=C(OCC(O)CO)c1cccc2c(=O)cc(-c3ccccc3Cl)[nH]c12 (stereo not drawn) [Example 126]	–	15.3	19.2	–
CC(C)COCCOC(=O)c1cccc2c(=O)cc(-c3ccccc3Cl)[nH]c12 [Example 127]	–	13.3	25.4	–
O=C(OCCOCCO)c1cccc2c(=O)cc(-c3ccccc3Cl)[nH]c12 [Example 128]	–	10.7	25	–
CCOCCOCCOC(=O)c1cccc2c(=O)cc(-c3ccccc3Cl)[nH]c12 [Example 129]	–	5.4	10.2	–
O=C(OCCO)c1cccc2c(=O)cc(-c3cccc(Cl)c3)[nH]c12 [Example 132]	–	18.6	55.5	–
Cc1ccccc1-c1cc(=O)c2cccc(C(=O)OCCO)c2[nH]1 [Example 134]	–	10.8	5.2	–
Cc1ccc(-c2cc(=O)c3cccc(C(=O)OCCO)c3[nH]2)cc1 [Example 135]	–	35	27.3	–
Cc1ccc(-c2cc(=O)c3cccc(C(=O)OCCO)c3[nH]2)cc1C [Example 137]	–	20	10.8	–
COc1ccc(-c2cc(=O)c3cccc(C(=O)OCCO)c3[nH]2)cc1 [Example 138]	–	12.7	25.4	–
COc1ccc(-c2cc(=O)c3cccc(C(=O)OCCO)c3[nH]2)c(OC)c1 [Example 139]	–	18.4	63.3	–
COc1ccc(-c2cc(=O)c3cccc(C(=O)OCCO)c3[nH]2)cc1OC [Example 140]	–	19.4	18.3	–
